The values that follow come from patent US8236985B2, “Compounds and uses thereof” (Imperial Innovations Ltd., priority 2006, dated 2012).

pEC50: −log10 of the molar value. Like-named read-outs stand apart in the source and are kept apart here.

A word on the pEC50: it is −log10 of the EC50, conventionally taken in molar units. The Cmax is the highest concentration seen after dosing.

In one series the test system is MCF-7 cells. As to the kind of experiment: Sulforhodamine B (SRB) cell growth inhibition assay. Format: cell-based, human. The conditions noted are these: N=5-6. On the procedure: Stock cultures of MCF-7 and MDA-MB-231 human breast cancer cell lines (American Type Culture Collection, Rockville, Md.) are grown in Dulbecco's Modified Eagle's Medium (DMEM) containing 10% (v/v) foetal calf serum, 2 mM L-glutamine, 100 units/ml penicillin and 100 μg/ml streptomycin at 37° C. in 5% CO2 humidified atmosphere. Cells are counted in a haemocytometer after detachment using 0.25% (w/v) trypsin in Dulbecco's Phosphate Buffered Saline without Ca^2+ or Mg^2+ (DPBS) (Sigma-Aldrich, Gillingham, UK) containing 0.02% (w/v) EDTA. Viability is determined by Trypan blue exclusion. For each cell line, cells are seeded in 96-well microtitre plates at optimal densities determined in prior experiments to ensure exponential growth for the duration of the assay. […] After 48 hour incubation, cell proliferation is determined using the sulforhodamine B colorimetric assay described by Skehan et al. (1990) J. Natl. Cancer Inst. 82, 1107-1112. Briefly, 100 μl of ice cold 40% (w/v) trichloroacetic acid is added to each well and incubated for 1 hour at 4° C. The plate is then rinsed gently with five changes of tap water. To each well is then added 100 μl of 0.4% (w/v) sulforhodamine B in 1% (v/v) acetic acid and incubated for 1 hour at room temperature. The plate is then washed five times with 1% (v/v) acetic acid and allowed to air dry overnight. Bound dye is then solubilised by addition of 100 μl of 10 mM Tris base to each well followed by incubation on a vibrating plate shaker for 30 minutes. Absorbance at 492 nm is then measured on a microtitre plate reader and the results expressed as the mean ±SE for 6 replicates as a % of vehicle control (taken as 100%). The concentration of each compound of the invention that inhibits cell proliferation by 50% (IC50) is determined graphically in each case using non-linear regression analysis to fit inhibition data to the appropriate dose-response curve (GraphPad Prism Version 4.0; GraphPad Software Inc., San Diego, Calif.).
Trichostatin A (TSA) was used as control.

Series [1] in a line: Intraperitoneal pharmacokinetic studies in vivo. Also noted: species or system mouse. As to conditions: for Number of UV metabolites: 80 mg/kg i.p. The procedure:
Parent compound and phase I metabolites were separated by HPLC and detected with simultaneous UV and positive ion electrospray mass spectrometry. Metabolites were identified by positive ion electrospray tandem mass spectrometry.
C1-A was introduced at 80 mg/kg in DMSO (0.0015 ml/g; 30 μl) intraperitoneally into the mouse.

Series [2] deals with MCF7 and MDA-MB-435 human mammary tumour xenografts. As to the kind of experiment: Human mammary tumour xenografts in immunodeficient mice. As to conditions: 20-40 mg/kg/day i.p. for 2 weeks. The class given is in vivo, mouse. In general terms: A xenograft is tissue or cells of one species grown in another, often human tumour cells in immunodeficient mice.
The conditions of series [3]: cited from earlier work.
In series [4] the test system is HDAC. As to conditions: background statement; cited from earlier work.
The subject of series [5] is N-methyl-N-nitrosourea carcinogen-induced rat mammary cancer. As to conditions: 500 μg/kg/day s.c. for 4 weeks; cited from earlier work.
Series [6] relates to HDAC. The conditions noted are these: HPLC fractions tested in vitro; cited from earlier work.
For series [7], the system named is HDAC (HeLa nuclear extract). The series is described as follows: Fluorometric HDAC inhibition assay using the Fluor de Lys assay kit. Format: biochemical, human. On the procedure:
Histone deacetylase inhibition by compounds of the invention is assayed by a commercial fluorescent assay kit (BIOMOL—AK-500). 10 mM stock solutions of compounds of the invention prepared in DMSO are aliquoted and frozen at −20° C. For each assay, a vial of the drug solution is thawed to prepare dilutions of drug in DMSO; the remaining drug is discarded. Working solutions of the assay reagents are prepared according to the manufacturers instructions. For the assay, 10 μl of ×5 concentrations of drug (in triplicate) or HDAC assay buffer is added to 15 μl of dilute HeLa nuclear extract (BIOMOL; D1409) and 25 μl of (2×) Fluor-de-Lys substrate in a micro titre plate (Perkin Elmer # 6005270, Optiplate-96 Black microplate) and thoroughly mixed. […] The reactions are allowed to proceed for 10 min and then stopped by addition of 50 μl of dilute Fluor-de-Lys developer solution. The reaction mixtures are then incubated at room temperature for 15 min and fluorescence is read on a Victor multi-well Fluorescence plate reader at an excitation wavelength of 355 nm and emission wavelength of 460 nm.
To obtain a calibration curve, 50 μl aliquots of deacetylated standards prepared in HDAC assay buffer according to the manufacturer's instructions are mixed with 50 μl of diluted Fluor-de-Lys developer solution and incubated for 10 min at room temperature. The fluorescence is measured as above. A plot of arbitrary fluorescence units (AFU) against deacetylated standard concentration in μM is made. The slope and intercept are determined and used for conversion of inhibitor data AFU into velocity of reaction (V, μM/min). To obtain half-maximal inhibition (EC50), molar concentrations of drug are plotted against V and the EC50 is determined from the sigmoid dose response using the GraphPad Prism software.

Series [8] has as its system Histone H4 acetylation, pRb and Cyclin D1 in MCF-7 cells. The series is described as follows: Western blots of acetyl-H4, pRb and cyclin D1. The class given is cell-based, human. The conditions noted are these: MCF-7 cells treated 24 h; western blot (FIG. 13). On the procedure: MCF-7 cells were treated with drug or vehicle (equivalent concentration of DMSO in growth media) for 24 h. Cells were harvested and homogenised. The respective proteins (acetyl-H4, pRb and cyclin D1) in supernatants of these homogenates were visualised by western blot analysis as previously described (Leyton J. et al., Cancer Res. (2006) 66(15): 7621-9).
On the technique in general: A western blot detects proteins with antibodies after separation by electrophoresis.

Series [9] is described as follows: Pharmacokinetic studies in vivo after intravenous injection. More on the design: species or system mouse. As to conditions: 80 mg/kg i.v. The procedure:
C1-A at 80 mg/kg in 10% DMSO, 5% Tween 20 and 85% saline was injected i.v. into the mouse. Plasma samples were deproteinated with two volume equivalents of methanol, then 200 μl was analysed by reversed-phase high pressure liquid chromatography (5 μm C18 column and 10 mM ammonium acetate/acetonitrile gradient) with ultraviolet detection at a wavelength of 351 nm. C1-A was detectable in plasma up to 60 min after i.v. injection.

Series [10] concerns HCT116 human colon cancer cells. The series is described as follows: Efficacy in vivo, HCT116 tumour-bearing mice. Also noted: species or system mouse. The conditions noted are these: 80 mg/ml i.p. daily for 7 days, n=1; for Efficacy in vivo (tumour volume vs vehicle control): HCT116 s.c. tumours. The procedure: The study was carried out at n=1 each for drug- or vehicle-treated mice. HCT116 human colon cancer cells were injected subcutaneously into the back of mice to form tumours.
When the tumours were about ˜125 mm^3, the mice were injected with C1-A at 80 mg/ml or vehicle (10% DMSO, 5% Tween 20 and 85% saline) intraperitoneally daily for 7 days. Tumour sizes were measured every 1-2 days in 3 orthogonal axes by callipers to determine tumour volume.

Setting [11] is: MCF-7 cells, first of two independent assays.
[12] abbreviates: MCF-7 cells, second of two independent assays.
Where [13] appears, read: first of two independent assay sets, N=3, read-out: Average EC50.
[14] abbreviates: second of two independent assay sets, N=3, read-out: Average EC50.

Consider `CC(/C=C/C(=O)NO)=C\[C@@H](C)C(=O)c1ccc(N(C)C)cc1` [TSA, Trichostatin A], for which the negative logarithm of the EC50 (pEC50) with MCF-7 cells (setting [11]) was 7.12; in the series on MCF-7 cells (setting [12]), 6.96. Also, the “Number of UV metabolites” value in series [1] (mice, at 20 minutes (FIG. 17 and Sanderson et al, 2004)) is 17; in series [3] (TSA, at 20 minutes (Sanderson et al, 2004), quoted in Example 10), 17. Moreover, the Metabolism in vivo entry in [1] (FIG. 17) is listed as “rapidly metabolised in vivo”. Besides, the Anti-tumour activity result in series [2] is listed as “anti-tumour activity”; in series [5], “potent anti-tumour activity”. For the same compound, the Parent drug remaining entry in series [3] (TSA, at 20 minutes (Sanderson et al, 2004)) was “almost no parent drug”. In series [3] (plasma, 80 mg/kg i.p., mice), the Cmax is 40000 ng/mL. Moreover, the Half-life in [3] (plasma, 80 mg/kg i.p., mice) is listed as 6.3 min. The “Concentrations at which HDAC is inhibited” value in the series with HDAC [4] was “low nanomolar”. Also, in [5], the Toxicity in vivo entry was “without significant toxicity”.

Turning to `CNc1ccc(C(=O)C(C)C=C(C)C=CC(=O)NO)cc1` (centres unmarked) [N-demethylated TSA metabolite, N-demethylated TSA], the “HDAC inhibitory potency relative to TSA” value with HDAC [6] is “equipotent”.

`CCN(CC)c1ccc(S(=O)(=O)Nc2ccc(/C=C(C)/C=C/C(=O)NO)cc2)cc1` [Example C1-B, (E,E)-4-methyl-5-{4-[4-(diethylamino)phenyl]sulfonamido}penta-2,4-dienoic acid N-hydroxyamide]: the negative-log EC50 (pEC50) was 6.49 in series [7] (setting [13]); 6.35 in [7] (setting [14]); 5.22 in the series with MCF-7 cells (Homo sapiens, MCF7, MCF-7 cells, first of two independent assays); 4.85 in the series on MCF-7 cells (Homo sapiens, MCF7, MCF-7 cells, second of two independent assays).

As to Depudecin [reference compound], the pEC50 in series [7] (control, read-out: EC50) is under 5.00. For the same compound, in the series on HDAC [4], the “Concentrations at which HDAC is inhibited” value is on record as “micromolar”.

“(E,E)-4-methyl-5-{4-[4-bis-(2-chloroethylamino)phenyl]-sulfonamido}penta-2,4-dienoic acid N-hydroxyamide [Example C1-A]”: the pEC50 in [7] (setting [13]) is 6.23; in series [7] (setting [14]) it was 6.51; in the series with MCF-7 cells (setting [11]), 5.41; in the series with MCF-7 cells (setting [12]), 5.17. Further, the “Concentration at which pRb & cyclin D are inhibited and H4 hyperacetylation is induced, relative to TSA” value in series [8] is at least 10 × [TSA]. For the same compound, the Stability in vivo entry in series [9] (Balb/c mice (FIG. 14)) was “stable in vivo”; in series [1] (80 mg/kg i.p. in DMSO, mouse, HPLC-UV (FIG. 16)) it was “stable in vivo”. For the same compound, the Detection in liver entry in [9] (mouse) is on record as “detectable in the liver at all time points”. Also, the “Time up to which compound was detectable in plasma” value in [9] (mouse, HPLC-UV) was “up to 60 min”. In series [10], the “Toxicity based on measurement of body weight” value is given as “no toxicity was detectable”. Further, the “Efficacy in vivo (tumour volume vs vehicle control)” value in [10] was “Tumour volume was greater in the control than in the C1-A-treated mouse”; in [10] (listed as C1A) it was “efficacious in vivo”. The “Number of UV metabolites” value in series [1] (mouse, at 60 minutes) amounted to 5.
